Seven molecules from patent US10335409B2 (priority 2012, dated 2019) can be followed below.

What all share (assay type): cell-based, hepatitis C virus
Test [1] relates to genotype 1a (H77) stable HCV replicon in Huh-7-derived cells. As to the kind of experiment: Stable subgenomic HCV replicon EC50, genotype 1a (Renilla luciferase). The note with it: Hepatitis C virus, stable replicon genotype 1a, 72 h, read-out: EC50 1A RLUC. In short, it runs like this: (§1)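 Compounds, three-fold diluted, were applied to Huh-7-derived cells harbouring luciferase replicons (genotype 1a H77, 1b Con1, 2a JFH-1, 4a ED43, with strain-specific adaptive mutations). Seventy-two hours later, intracellular replication was gauged by Renilla luciferase activity and EC50 derived by regression.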

In test [2] the test system is genotype 1b (Con1) stable HCV replicon in Huh-7-derived cells. As to the kind of experiment: Stable subgenomic HCV replicon EC50, genotype 1b (Renilla luciferase). The note with it: Hepatitis C virus, stable replicon genotype 1b, 72 h, read-out: EC50 1B RLUC. In short, it runs like this:
as §1

Test [3] concerns genotype 2a (JFH-1) stable HCV replicon in Huh-7-derived cells. As to the kind of experiment: Stable subgenomic HCV replicon EC50, genotype 2a (Renilla luciferase). The note with it: Hepatitis C virus, stable replicon genotype 2a, 72 h, read-out: EC50 2A RLUC. In a few lines: as §1
The subject of test [4] is genotype 3a (S52) stable HCV replicon in Huh-7-derived cells. Put plainly: Stable subgenomic HCV replicon EC50, genotype 3a (Renilla luciferase). Conditions: Hepatitis C virus, 72 h, read-out: EC50 3A RLUC.
Test [5] has as its system genotype 4a (ED43) stable HCV replicon in Huh-7-derived cells. As to the kind of experiment: Stable subgenomic HCV replicon EC50, genotype 4a (Renilla luciferase). Conditions: Hepatitis C virus, 72 h, read-out: EC50 4A RLUC. In short, it runs like this:
as §1
A general note: Replicon systems follow genome replication, usually without infectious particles.

In test [6] the test system is genotype 3a (S52) wild type transient HCV replicon in Huh-7-derived cells. Put plainly: Transient-transfected HCV replicon EC50, genotype 3a wild type. Conditions: Hepatitis C virus, 72 h, read-out: EC50 3A WT.
Test [7] has as its system genotype 1a (H77) wild type transient HCV replicon in Huh-7-derived cells. Put plainly: Transient-transfected HCV replicon EC50, genotype 1a wild type. Conditions: Hepatitis C virus, 72 h, read-out: EC50 1A WT.
Test [8] relates to genotype 1a NS3/4a protease inhibitor resistant variant R155K transient HCV replicon in Huh-7-derived cells. As to the kind of experiment: Transient-transfected HCV replicon EC50, genotype 1a R155K. The note with it: Hepatitis C virus, 72 h, read-out: EC50 1A R155K, transient-transfected replicon genotype 1a R155K resistant variant, 72 h.
Test [9] has as its system genotype 1b (Con1) wild type transient HCV replicon in Huh-7-derived cells. As to the kind of experiment: Transient-transfected HCV replicon EC50, genotype 1b wild type. The note with it: Hepatitis C virus, 72 h, read-out: EC50 1B WT.
The test system of test [10] is genotype 1b NS3/4a protease inhibitor resistant variant D168A transient HCV replicon in Huh-7-derived cells. Put plainly: Transient-transfected HCV replicon EC50, genotype 1b D168A. The note with it: Hepatitis C virus, 72 h, read-out: EC50 1B D168A, transient-transfected replicon genotype 1b D168A resistant variant, 72 h.
The mark [11] stands for this setting: transient-transfected replicon genotype 3a wild type.
Setting [12] is: transient-transfected replicon genotype 1a wild type.
The mark [13] stands for this setting: transient-transfected replicon genotype 1b wild type.

Where two headings read alike, the source gives them in different places.

As usually defined, the EC50 is the concentration needed to bring the measured effect to its halfway point. Take `CC[C@@H]1[C@@H]2CN(C(=O)[C@H](C(C)(C)C)NC(=O)O[C@@H]3C[C@@H]4C[C@@H]4[C@H]3CCCCC(F)(F)c3nc4ccc(OC)cc4nc3O2)[C@@H]1C(=O)N[C@]1(C(=O)NS(=O)(=O)C2(C)CC2)C[C@H]1C(F)F` [Example 61, (1aS,2aR,6S,9S,10S,11R,23aR,23bS)-6-tert-butyl-N-[(1R,2R)-2-(difluoromethyl)-1-{[(1-methylcyclopropyl)sulfonyl]carbamoyl}cyclopropyl]-10-ethyl-19,19-difluoro-15-methoxy-4,7-dioxo-1a,2,2a,4,5,6,7,10,11,19,20,21,22,23,23a,23b-hexadecahydro-1H,9H-8,11-methanocyclopropa[4′,5′]cyclopenta[1′,2′:18,19][1,10,3,6]dioxadiazacyclononadecino[11,12-b]quinoxaline-9-carboxamide]: the EC50 in test [1] is 13 nM; in [2], 10 nM; in test [3], 8.7 nM; in test [4], 28 nM; in test [5] it was 11 nM; in [6] (setting [11]) it was 13 nM. The EC50 in test [7] (setting [12]) was determined as 12 nM; in test [8], 10 nM; in test [9] (setting [13]) it was 9.3 nM; in test [10] it was 6.7 nM.

For `CC[C@@H]1[C@@H]2CN(C(=O)[C@H](C(C)(C)C)NC(=O)O[C@@H]3[C@H]4CC[C@H](C4)[C@H]3CCCCCc3nc4ccc(OC)cc4nc3O2)[C@@H]1C(=O)N[C@]1(C(=O)NS(=O)(=O)C2(C)CC2)C[C@H]1C(F)F` [Example 37, (1R,4S,4aR,8S,11 S, 12S,13R,25aR)-8-tert-butyl-N-[(1R,2R)-2-(difluoromethyl)-1-{[(1-methylcyclopropyl)sulfonyl]carbamoyl}cyclopropyl]-12-ethyl-17-methoxy-6,9-dioxo-2,3,4,4a,6,7,8,9,12,13,21,22,23,24,25,25a-hexadecahydro-1H,11H-1,4:10,13-dimethanoquinoxalino[2,3-k][1,10,3,6]benzodioxadiazacyclononadecine-11-carboxamide], the EC50 in test [1] is 24 nM; in test [2] it was 22 nM; in test [3] it was 16 nM; in [4] it was 575 nM; in test [5] it was 15 nM; in test [6] (setting [11]), 69 nM. Also, the EC50 came out at 29 nM in [7] (setting [12]), 51 nM in [8], 22 nM in [9] (setting [13]) and 159 nM in test [10].

In the case of `CC[C@@H]1[C@@H]2CN(C(=O)[C@H](C(C)(C)C)NC(=O)O[C@@H]3C[C@H]3CC/C=C/C(F)(F)c3nc4ccc(C#N)cc4nc3O2)[C@@H]1C(=O)N[C@]1(C(=O)NS(=O)(=O)C2(C)CC2)C[C@H]1C(F)F` [Example 84, (1aR,5S,8S,9S,10R,19E,22aR)-5-tert-butyl-14-cyano-N-[(1R,2R)-2-(difluoromethyl)-1-{[(1-methylcyclopropyl)sulfonyl]carbamoyl}cyclopropyl]-9-ethyl-18,18-difluoro-3,6-dioxo-1,1a,3,4,5,6,9,10,18,21,22,22a-dodecahydro-8H-7,10-methanocyclopropa[18,19][1,10,3,6]dioxadiazacyclononadecino[11,12-b]quinoxaline-8-carboxamide], the concentration for a half-maximal effect (EC50) in test [1] was 5.9 nM; in test [2], 5.7 nM; in [3], 7.2 nM; in [4], 27 nM; in [5] it was 6.4 nM; in test [6] (setting [11]), 11 nM. Moreover, the EC50 worked out at 5.4 nM in test [7] (setting [12]), 4 nM in test [8], 2.5 nM in [9] (setting [13]) and 5.2 nM in [10].

With `CC[C@@H]1[C@@H]2CN(C(=O)[C@H](C(C)(C)C)NC(=O)O[C@@H]3C[C@H]3CCCCCc3nc4ccc(OC)cc4nc3O2)[C@@H]1C(=O)N[C@]1(C(=O)NS(=O)(=O)C2(Cl)CC2)C[C@H]1C(F)F` [Example 75, (1aR,5S,8S,9S,10R,22aR)-5-tert-butyl-N-[(1R,2R)-1-{[(1-chlorocyclopropyl)sulfonyl]carbamoyl}-2-(difluoromethyl)cyclopropyl]-9-ethyl-14-methoxy-3,6-dioxo-1,1a,3,4,5,6,9,10,18,19,20,21,22,22a-tetradecahydro-8H-7,10-methanocyclopropa[18,19][1,10,3,6]dioxadiazacyclononadecino[11,12-b]quinoxaline-8-carboxamide], the concentration for a half-maximal effect (EC50) amounted to 9.9 nM in test [1]; 6.4 nM in [2]; 18 nM in test [3]; 240 nM in [4]; 10 nM in [5]; 56 nM in [6] (setting [11]). Also, the EC50 in test [7] (setting [12]) came out at 14 nM; in test [8], 45 nM; in test [9] (setting [13]), 3.5 nM; in [10], 51 nM.

Take `CC[C@@H]1[C@@H]2CN(C(=O)[C@H](C(C)(C)C)NC(=O)O[C@@H]3C[C@H]3CCCCC(F)(F)c3nc4ccc(OC)cc4nc3O2)[C@@H]1C(=O)N[C@]1(C(=O)NS(=O)(=O)C2(C)CC2)C[C@H]1CC(F)F` [Example 35, (1aR,5S,8S,9S,10R,22aR)-5-tert-butyl-N-[(1R,2S)-2-(2,2-difluoroethyl)-1-{[(1-methylcyclopropyl)sulfonyl]carbamoyl}cyclopropyl]-9-ethyl-18,18-difluoro-14-methoxy-3,6-dioxo-1,1a,3,4,5,6,9,10,18,19,20,21,22,22a-tetradecahydro-8H-7,10-methanocyclopropa[18,19][1,10,3,6]dioxadiazacyclononadecino[11,12-b]quinoxaline-8-carboxamide]: the EC50 was 9.1 nM in test [1]; 11 nM in test [2]; 7.4 nM in [3]; 162 nM in test [4]; 7.6 nM in [5]; 35 nM in [6] (setting [11]). Besides, the concentration for a half-maximal effect (EC50) in test [7] (setting [12]) was 12 nM; in test [8], 17 nM; in test [9] (setting [13]), 10 nM; in test [10], 38 nM.

With `CC[C@@H]1[C@@H]2CN(C(=O)[C@H](C(C)(C)C)NC(=O)O[C@]3(C)CCC[C@H]3CCCCCc3nc4ccc(OC)cc4nc3O2)[C@@H]1C(=O)N[C@]1(C(=O)NS(=O)(=O)C2CC2)C[C@H]1C(F)F` [Example 40, (3aR,7S,10S,11S,12R,24aR)-7-tert-butyl-N-[(1R,2R)-1-[(cyclopropylsulfonyl)carbamoyl]-2-(difluoromethyl)cyclopropyl]-11-ethyl-16-methoxy-3a-methyl-5,8-dioxo-1,2,3,3a,5,6,7,8,11,12,20,21,22,23,24,24a-hexadecahydro-10H-9,12-methanocyclopenta[18,19][1,10,3,6]dioxadiazacyclononadecino[11,12-b]quinoxaline-10-carboxamide], the EC50 in test [1] was 25 nM; in [2], 22 nM; in test [3] it was 48 nM; in test [4], 360 nM; in test [5], 18 nM; in test [6] (setting [11]) it was 156 nM. Further, the EC50 in test [7] (setting [12]) came out at 17 nM; in [8], 74 nM; in [9] (setting [13]), 8.6 nM; in test [10], 129 nM.

Consider `C=C[C@@H]1C[C@]1(NC(=O)[C@@H]1[C@H](C)[C@@H]2CN1C(=O)[C@H](C(C)(C)C)NC(=O)O[C@@H]1C[C@H]1CCCCCc1nc3ccc(OC)cc3nc1O2)C(=O)NS(=O)(=O)C1CC1` [Example 48, (1aR,5S,8S,9S,10R,22aR)-5-tert-butyl-N-{(1R,2S)-1-[(cyclopropylsulfonyl)carbamoyl]-2-ethenylcyclopropyl}-14-methoxy-9-methyl-3,6-dioxo-1,1a,3,4,5,6,9,10,18,19,20,21,22,22a-tetradecahydro-8H-7,10-methanocyclopropa[18,19][1,10,3,6]dioxadiazacyclononadecino[11,12-b]quinoxaline-8-carboxamide], for which the EC50 in test [1] was 2 nM; in test [2], 1.8 nM; in test [3], 9.7 nM; in test [4], 73 nM; in test [5] it was 2.2 nM; in test [6], 13 nM. The EC50 in test [7] stood at 1.7 nM; in [8], 4 nM; in test [9], 1.1 nM; in test [10], 6.5 nM.
